Experimental data as given in patent US9862998B2, “Conformational probes and methods for sequencing nucleic acids” (Illumina, Inc., priority 2010, dated 2018).
Entries after “also recorded” stand apart in the source; their conditions may differ.

B1: Cy3AF647: RB69V510CE766C polymerase labeled with donor/acceptor pair Cy3/AF647 at cysteine residues (conjugate, UniProt Q38087 1-903, looked up, variant V510C E766C)
DNA-directed DNA polymerase: MKEFYLTVEQIGDSIFERYIDSNGRERTREVEYKPSLFAHCPESQATKYFDIYGKPCTRKLFANMRDASQWIKRMEDIGLEALGMDDFKLAYLSDTYNYEIKYDHTKIRVANFDIEVTSPDGFPEPSQAKHPIDAITHYDSIDDRFYVFDLLNSPYGNVEEWSIEIAAKLQEQGGDEVPSEIIDKIIYMPFDNEKELLMEYLNFWQQKTPVILTGWNVESFDIPYVYNRIKNIFGESTAKRLSPHRKTRVKVIENMYGSREIITLFGISVLDYIDLYKKFSFTNQPSYSLDYISEFELNVGKLKYDGPISKLRESNHQRYISYNIIDVYRVLQIDAKRQFINLSLDMGYYAKIQIQSVFSPIKTWDAIIFNSLKEQNKVIPQGRSHPVQPYPGAFVKEPIPNRYKYVMSFDLTSLYPSIIRQVNISPETIAGTFKVAPLHDYINAVAERPSDVYSCSPNGMMYYKDRDGVVPTEITKVFNQRKEHKGYMLAAQRNGEIIKEALHNPNLSCDEPLDVDYRFDFSDEIKEKIKKLSAKSLNEMLFRAQRTEVAGMTAQINRKLLINSLYGALGNVWFRYYDLRNATAITTFGQMALQWIERKVNEYLNEVCGTEGEAFVLYGDTDSIYVSADKIIDKVGESKFRDTNHWVDFLDKFARERMEPAIDRGFREMCEYMNNKQHLMFMDREAIAGPPLGSKGIGGFWTGKKRYALNVWDMEGTRYAEPKLKIMGLETQKSSTPKAVQKALKECIRRMLQEGEESLQEYFKCFEKEFRQLNYISIASVSSANNIAKYDVGGFPGPKCPFHIRGILTYNRAIKGNIDAPQVVEGEKVYVLPLREGNPFGDKCIAWPSGTEITDLIKDDVLHWMDYTVLLEKTFIKPLEGFTSAAKLDYEKKASLFDMFDF
modifications: Cy3/AF647 dye labels
notes: RB69V510CE766C polymerase labeled with donor/acceptor pair Cy3/AF647 at cysteine residues
B2: CF555AF647: RB69V510CE766C polymerase labeled with donor/acceptor pair CF555/AF647 at cysteine residues (conjugate, UniProt Q38087 1-903, looked up, variant V510C E766C)
DNA-directed DNA polymerase: MKEFYLTVEQIGDSIFERYIDSNGRERTREVEYKPSLFAHCPESQATKYFDIYGKPCTRKLFANMRDASQWIKRMEDIGLEALGMDDFKLAYLSDTYNYEIKYDHTKIRVANFDIEVTSPDGFPEPSQAKHPIDAITHYDSIDDRFYVFDLLNSPYGNVEEWSIEIAAKLQEQGGDEVPSEIIDKIIYMPFDNEKELLMEYLNFWQQKTPVILTGWNVESFDIPYVYNRIKNIFGESTAKRLSPHRKTRVKVIENMYGSREIITLFGISVLDYIDLYKKFSFTNQPSYSLDYISEFELNVGKLKYDGPISKLRESNHQRYISYNIIDVYRVLQIDAKRQFINLSLDMGYYAKIQIQSVFSPIKTWDAIIFNSLKEQNKVIPQGRSHPVQPYPGAFVKEPIPNRYKYVMSFDLTSLYPSIIRQVNISPETIAGTFKVAPLHDYINAVAERPSDVYSCSPNGMMYYKDRDGVVPTEITKVFNQRKEHKGYMLAAQRNGEIIKEALHNPNLSCDEPLDVDYRFDFSDEIKEKIKKLSAKSLNEMLFRAQRTEVAGMTAQINRKLLINSLYGALGNVWFRYYDLRNATAITTFGQMALQWIERKVNEYLNEVCGTEGEAFVLYGDTDSIYVSADKIIDKVGESKFRDTNHWVDFLDKFARERMEPAIDRGFREMCEYMNNKQHLMFMDREAIAGPPLGSKGIGGFWTGKKRYALNVWDMEGTRYAEPKLKIMGLETQKSSTPKAVQKALKECIRRMLQEGEESLQEYFKCFEKEFRQLNYISIASVSSANNIAKYDVGGFPGPKCPFHIRGILTYNRAIKGNIDAPQVVEGEKVYVLPLREGNPFGDKCIAWPSGTEITDLIKDDVLHWMDYTVLLEKTFIKPLEGFTSAAKLDYEKKASLFDMFDF
modifications: CF555/AF647 dye labels
notes: RB69V510CE766C polymerase labeled with donor/acceptor pair CF555/AF647 at cysteine residues

Key:
Format in all cases: biochemical
[1] = target: Alexa 488 and 532 dual-labeled KF (K550C/L744C/C907G Klenow Fragment) (Escherichia coli, UniProt P00582, C907G/K550C/L744C); set-up: made in house; host or cells: E. coli BL21(DE3); settings: for time durations of the FRET signal for incorporation into the primer: AF488 donor fluorescence, stopped flow, FIG. 5-7; for AF488 fluorescence duration measured for the incorporation: dTTP versus Gamma-ANS-dTTP, FIG. 12; for FRET duration, correct versus incorrect incorporation: position complementary to cytosine, dGTP correct, dCTP incorrect, FIG. 8
Description: The Klenow Fragments (KF) was produced as follows. KF was mutated to replace cysteine 907 with glycine, to replace leucine 744 (in the fingers domain) with cysteine and to replace lysine 550 (in the thumb domain) with cysteine, thereby producing K550C/L744C/C907G KF. Standard mutagenesis techniques were used to produce K550C/L744C/C907G KF as described in the manual of the QuikChange® site-directed mutagenesis kit from Stratagene/Agilent (La Jolla, Calif.). The K550C/L744C/C907G KF was cloned into the pET15b plasmid using the NdeI and BamHI restriction sites, and expressed in E. coli BL21(DE3) cells. The K550C/L744C/[…] KF was purified as described in Joyce, et al. Biochemistry, 47 (23): 6103-6116 (2008), which is incorporated herein by reference. The purified K550C/L744C/C907C KF was chemically modified using the thiol-reactive maleimide to introduce the Alexa488 fluorescent donor dye at cysteine 550
Conformational changes in the dual labeled KF enzyme from the open to closed state can be detected based on fluorescence resonance energy transfer (FRET) between the AF488 fluorescent donor dye on the thumb domain and AF532 fluorescence acceptor dye on the fingers domain. The KF enzyme can be bound to a primer-template nucleic acid complex in an open conformation. In the open conformation the AF488 fluorescent donor dye when excited with light at a wavelength of 495 nm will emit fluorescence at a wavelength of 519 nm. However, upon binding of an appropriate nucleotide to the dual labeled KF-template-primer complex the dual labeled KF enzyme changes from the open state to the closed state. The closed state brings the AF488 fluorescent donor dye on the thumb domain into proximity with the AF532 fluorescence acceptor dye on the finger domain such that the AF488 fluorescent donor dye when excited transfers energy to the AF532 fluorescence acceptor dye. This FRET results in a detectable emission from the AF532 fluorescence acceptor dye at a wavelength of […]. As such, binding of the appropriate nucleotide can be detected as increased emission at 554 nm wavelength. Furthermore, differential time durations of the closed state can be used to distinguish different nucleotides that are incorporated into the primer by dual labeled KF.
The real-time fluorescence change from dual labeled KF was measured in an Applied Photophysics SX20 stopped-flow spectrometer by monitoring changes in AF 488 dye fluorescence following the mixing of the PolI(KF)-DNA binary complex with a nucleotide in the reaction buffer containing 10 mM Tris-HCl, pH 8.0, 50 mM NaCl, 1 mM dithiothreitol and 10 mM MgCl2.
(§1) Dual labeled KF was produced as described in Example III. FRET from dual labeled KF was measured by stopped flow kinetics also as described in Example III. 5-TAMRA Pol β was prepared as described in Example IV. The real time fluorescence change from 5-TAMRA Pol β was measured by stopped flow kinetics also as described in Example IV.

[2] = target: T1, 5-TAMRA Pol β (W325C Pol β) (Homo sapiens, UniProt P06746, W325C); experiment: Stopped-flow 5-TAMRA fluorescence detection of nucleotide incorporation by 5-TAMRA Pol β; settings: for amplitudes and durations for the 5-TAMRA emission shift: incorporated at an appropriate position in a template-bound primer, FIG. 10, 11, 13
T1 construct: made in house; host or cells: E. coli BL21(DE3)
Protocol: 5-TAMRA Pol β was prepared as follows. Human Pol β was mutated to replace Tryptophan 325 (in the fingers domain) with cysteine to produce W325C Pol β. Standard mutagenesis techniques were used to produce W325C Pol β as described in Example III. The W325C Pol β was cloned in the pET15b plasmid, expressed in E. coli BL21(DE3) cells and purified as described in Dunlap and Tsai, Biochemistry, 41 (37): 11226-11235 (2002), which is incorporated herein by reference. The purified W325C Pol β was chemically modified to introduce the 5-TAMRA fluorescent dye at cysteine 325, thereby producing 5-TAMRA Pol β.
Conformational changes in the 5-TAMRA Pol β enzyme from the open to closed state can be detected based on a fluorescent emission change from the environmentally sensitive 5-TAMRA dye. The spectral and emission intensity changes from the 5-TAMRA dye when the polymerase changes to the closed state. The 5-TAMRA Pol β enzyme can be bound to a primer-template nucleic acid complex in an open conformation. In the open conformation the 5-TAMRA dye when excited with light at a wavelength of 542 nm will emit fluorescence at a wavelength of 568 nm. However upon binding of an appropriate nucleotide to the 5-TAMRA Pol β-primer-template binary complex, the 5-TAMRA Pol β enzyme changes from the open state to the closed state causing the 5-TAMRA dye to experience a different environment. This change in environment results in a detectable fluorescent emission change from the TAMRA dye at the wavelength of 568 nm. As such, binding of the appropriate nucleotide can be detected as a fluorescent emission change at 568 nm wavelength. Furthermore, differential time durations of the closed state can be used to distinguish different nucleotides that are incorporated into the primer by 5-TAMRA Pol β.
The real-time fluorescence change from 5-TAMRA Pol β was measured in the Applied Photophysics SX20 stopped-flow spectrometer by monitoring changes in 5-TAMRA dye fluorescence following the mixing of the 5-TAMRA Pol β-DNA binary complex with a nucleotide in a reaction buffer containing 50 mM Tris-HCl, pH 7.5, 50 mM KCl, 1 mM Dithiothreitol and 5 mM MgCl2 as described in Example III.
as §1

[3] = test system: nucleic acid duplex of extendable 3'-OH primer and AF488 template; experiment: FRET-based primer extension assay (AF488 quenching); settings: AF488 quenching over time by Cy3-dCTP incorporation, FIG. 16
Protocol: Functionality of the Cy3AF647 and CF555AF647 conjugates of RB69V510CE766C were confirmed using a FRET-based primer extension assay as follows. Extension was carried out on a nucleic acid duplex composed of an extendable 3′-OH primer and a template with a 7 base overhang. The extendable sequence was TGGAACG. In addition, the template contained an AF488 dye at the 5′ position. The extension reaction mix was composed of 50 mM ACES pH 7.2, 50 mM NaCl, 10 mM DTT, 10 mM Mg′, 1 μM dTTP, 1 μM dGTP, 1 μM dATP and 0.1 μM Cy3-dCTP. Upon extension, the Cy3 quenches the AF488. The control reactions were carried out under the same conditions except that dTTP was removed to prevent extension. A SpectraMax M5 plate reader was used to monitor the AF488 quenching over time. […] The plot confirms that both conjugates were functional in extending a primed nucleic acid.

Alexa 488 and 532 dual-labeled KF (K550C/L744C/C907G Klenow Fragment), sequence (P00582 324-928 K550C/L744C/C907G): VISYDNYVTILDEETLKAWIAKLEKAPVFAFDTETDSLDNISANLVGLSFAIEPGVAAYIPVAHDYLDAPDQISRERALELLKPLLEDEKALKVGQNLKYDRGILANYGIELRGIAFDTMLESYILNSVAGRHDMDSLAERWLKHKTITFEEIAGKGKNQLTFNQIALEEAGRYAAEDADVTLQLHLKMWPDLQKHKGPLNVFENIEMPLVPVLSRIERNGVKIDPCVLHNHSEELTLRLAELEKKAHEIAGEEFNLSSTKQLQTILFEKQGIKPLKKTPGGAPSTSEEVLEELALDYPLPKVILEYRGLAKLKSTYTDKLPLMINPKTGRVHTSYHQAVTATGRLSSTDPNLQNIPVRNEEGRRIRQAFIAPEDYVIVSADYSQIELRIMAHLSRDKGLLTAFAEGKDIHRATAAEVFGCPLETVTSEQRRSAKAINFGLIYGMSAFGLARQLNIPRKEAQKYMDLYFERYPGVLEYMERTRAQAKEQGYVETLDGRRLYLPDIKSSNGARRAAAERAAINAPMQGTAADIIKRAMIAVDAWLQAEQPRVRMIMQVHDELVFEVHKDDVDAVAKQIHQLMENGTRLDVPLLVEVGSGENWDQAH

| Molecule | time durations of the FRET signal for incorporation into the primer [1] | amplitudes and durations for the 5-TAMRA emission shift [2] | further results |
| --- | --- | --- | --- |
| Nc1ccn([C@H]2C[C@H](O)[C@@H](COP(O)(=S)OP(=O)(O)OP(=O)(O)O)O2)c(=O)n1 (stereo partly drawn) [1-alpha-thiol-dCTP] | substantially different |  |  |
| O=c1ccn([C@H]2C[C@H](O)[C@@H](COP(=O)(O)OP(=O)(O)OP(=O)(O)O)O2)c(=O)[nH]1 [dUTP] | differed |  |  |
| Cc1cn([C@H]2C[C@H](O)[C@@H](COP(=O)(O)OP(=O)(O)OP(=O)(O)O)O2)c(=O)[nH]c1=O [dTTP] |  | different amplitudes and durations; also recorded: could be distinguished from each other | AF488 fluorescence duration measured for the incorporation [1]: substantially different |
| Nc1ccn([C@H]2C[C@H](O)[C@@H](COP(=O)(O)OP(=O)(O)OP(=O)(O)O)O2)c(=O)n1 [dCTP] |  | different amplitudes and durations | incorporation detected by wavelength shift for the 5-TAMRA dye ([2]; correct or incorrect nucleotide, FIG. 9A, 9B): could be detected; FRET duration, correct versus incorrect incorporation [1]: could be distinguished |
| Gamma-ANS-dTTP |  | could be distinguished from each other | AF488 fluorescence duration measured for the incorporation [1]: substantially different |
| 1-alpha-borano-dCTP | substantially different | could be distinguished from each other |  |
| Nc1ncnc2c1ncn2[C@H]1C[C@H](O)[C@@H](COP(=O)(O)OP(=O)(O)OP(=O)(O)O)O1 [dATP] | very similar | different amplitudes and durations |  |
| Nc1nc2c(ncn2[C@H]2C[C@H](O)[C@@H](COP(=O)(O)OP(=O)(O)OP(=O)(O)O)O2)c(=O)[nH]1 [dGTP] | very similar | different amplitudes and durations | FRET duration, correct versus incorrect incorporation [1]: could be distinguished |
| B1 |  |  | functionality in extending a primed nucleic acid [3]: functional |
| B2 |  |  | functionality in extending a primed nucleic acid [3]: functional |
